According to ChEMBL document CHEMBL1149270, “Design and synthesis of a potent and selective peptidomimetic inhibitor of caspase-3” (J Med Chem, 2004):

Experiments:
Caspase-3 (Homo sapiens) = biological target: T1, Caspase-3 (Homo sapiens) (UniProt P42574); test: […] caspase 3 activity at 210 nM relative to control; set-up: scale not given: the % may be the effect or the level left
T1 sequence (whole entry): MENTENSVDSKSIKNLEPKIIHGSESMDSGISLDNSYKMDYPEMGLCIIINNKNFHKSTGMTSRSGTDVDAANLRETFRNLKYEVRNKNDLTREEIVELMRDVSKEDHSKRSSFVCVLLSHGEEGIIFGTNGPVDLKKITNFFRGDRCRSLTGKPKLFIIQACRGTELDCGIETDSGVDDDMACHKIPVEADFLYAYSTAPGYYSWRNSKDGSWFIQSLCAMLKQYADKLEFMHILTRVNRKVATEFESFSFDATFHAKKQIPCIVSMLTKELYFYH

Caspase-6 (Homo sapiens) = biological target: T2, Caspase-6 (Homo sapiens) (UniProt P55212); test: Effect on recombinant caspase 6 activity at 210 nM relative to control
T2 sequence (whole entry): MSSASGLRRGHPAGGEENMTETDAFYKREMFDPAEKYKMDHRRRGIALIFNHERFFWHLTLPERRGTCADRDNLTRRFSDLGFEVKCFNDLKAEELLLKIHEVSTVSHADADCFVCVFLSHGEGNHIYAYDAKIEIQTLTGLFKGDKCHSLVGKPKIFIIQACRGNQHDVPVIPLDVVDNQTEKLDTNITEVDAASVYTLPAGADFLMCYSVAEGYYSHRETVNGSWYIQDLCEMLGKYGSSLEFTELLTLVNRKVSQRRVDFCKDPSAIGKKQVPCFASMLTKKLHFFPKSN

Caspase-4 (Homo sapiens) = biological target: T3, Caspase-4 (Homo sapiens) (UniProt P49662); test: Effect on recombinant caspase 4 activity at 210 nM relative to control
T3 sequence (whole entry): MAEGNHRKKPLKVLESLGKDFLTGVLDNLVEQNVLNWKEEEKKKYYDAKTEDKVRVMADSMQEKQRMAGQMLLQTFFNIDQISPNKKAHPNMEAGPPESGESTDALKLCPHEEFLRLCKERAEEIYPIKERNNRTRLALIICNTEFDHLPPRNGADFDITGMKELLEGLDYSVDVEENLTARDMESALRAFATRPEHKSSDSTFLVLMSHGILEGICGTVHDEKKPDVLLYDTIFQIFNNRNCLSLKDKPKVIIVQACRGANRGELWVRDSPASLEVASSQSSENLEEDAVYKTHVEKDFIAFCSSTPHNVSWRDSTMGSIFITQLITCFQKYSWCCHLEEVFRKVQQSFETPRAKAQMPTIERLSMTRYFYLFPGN

`CC(=O)N[C@@H](CC(=O)O)C(=O)NC1N=C(c2ccccc2)c2ccccc2N(CC(=O)N[C@H]2CC(=O)OC2O)C1=O` (stereo partly drawn) gave an Activity (Caspase-3 (Homo sapiens)) of 9%, an Activity (Caspase-6 (Homo sapiens)) of 58% and an Activity (Caspase-4 (Homo sapiens)) of 95%.
